Source: ChEMBL document CHEMBL3400108, “Synthesis and biological evaluation of open-chain analogs of cyclic peptides as inhibitors of cellular Shp2 activity” (Bioorg Med Chem, 2015)
Non-standard residues stand in square brackets, D forms with d. Residues, ends and D or L forms follow the SMILES beside them. Groups on a side chain read outwards from the residue. *: point of attachment. Phe(4-Br) = N[C@@H](Cc1ccc(Br)cc1)C(=O)O; Phe(4-Cl) = N[C@@H](Cc1ccc(Cl)cc1)C(=O)O; Phe(4-F) = N[C@@H](Cc1ccc(F)cc1)C(=O)O; 2Nal = N[C@@H](Cc1ccc2ccccc2c1)C(=O)O; NEt2 = CCN(CC)*

Experiments:
Monoglyceride lipase = target: T1, Monoglyceride lipase (Homo sapiens, UniProt Q99685); assay: Inhibition of MAGL (unknown origin)
T1 sequence (Q99685 whole entry): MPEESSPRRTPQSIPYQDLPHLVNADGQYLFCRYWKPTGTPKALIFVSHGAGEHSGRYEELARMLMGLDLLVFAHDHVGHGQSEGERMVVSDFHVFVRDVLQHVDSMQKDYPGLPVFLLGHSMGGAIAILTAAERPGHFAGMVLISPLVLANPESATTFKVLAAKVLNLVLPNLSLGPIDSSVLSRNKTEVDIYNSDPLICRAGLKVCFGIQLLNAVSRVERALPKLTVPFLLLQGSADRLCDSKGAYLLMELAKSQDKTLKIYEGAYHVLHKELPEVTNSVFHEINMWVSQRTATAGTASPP

MDA-MB-231 = assay: Antitumor activity against human MDA-MB-231 cells; type: functional, cell-based
[1] = Inhibition of IMPDH (unknown origin); set-up: species or system Homo sapiens
Proteasome = assay: Inhibition of proteasome (unknown origin); type: subcellular, Homo sapiens
[2] = target: T2, Tyrosine-protein phosphatase non-receptor type 11 (Homo sapiens) (UniProt Q06124); assay: Inhibition of SHP2 (unknown origin) at 5 uM
T2 sequence (whole entry): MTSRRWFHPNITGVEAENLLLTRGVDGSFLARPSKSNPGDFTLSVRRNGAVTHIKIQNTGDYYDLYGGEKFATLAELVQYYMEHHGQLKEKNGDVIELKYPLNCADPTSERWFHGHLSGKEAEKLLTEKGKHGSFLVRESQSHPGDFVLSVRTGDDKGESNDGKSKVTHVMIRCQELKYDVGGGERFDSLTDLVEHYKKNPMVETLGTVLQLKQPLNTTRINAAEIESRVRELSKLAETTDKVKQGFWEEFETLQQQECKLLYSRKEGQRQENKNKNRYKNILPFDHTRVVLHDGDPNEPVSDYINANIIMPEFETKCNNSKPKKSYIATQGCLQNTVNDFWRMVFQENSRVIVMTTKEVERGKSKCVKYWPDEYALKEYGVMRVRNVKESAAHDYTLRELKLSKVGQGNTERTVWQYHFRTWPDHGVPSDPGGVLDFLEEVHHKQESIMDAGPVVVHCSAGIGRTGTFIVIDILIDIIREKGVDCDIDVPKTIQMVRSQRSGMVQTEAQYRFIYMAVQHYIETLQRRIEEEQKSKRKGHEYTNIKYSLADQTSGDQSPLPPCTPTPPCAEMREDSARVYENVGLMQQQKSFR

Acetylcholinesterase = Acetylcholinesterase (Homo sapiens, UniProt P22303); assay: Inhibition of AchE (unknown origin)
Acetylcholinesterase, sequence (P22303 whole entry): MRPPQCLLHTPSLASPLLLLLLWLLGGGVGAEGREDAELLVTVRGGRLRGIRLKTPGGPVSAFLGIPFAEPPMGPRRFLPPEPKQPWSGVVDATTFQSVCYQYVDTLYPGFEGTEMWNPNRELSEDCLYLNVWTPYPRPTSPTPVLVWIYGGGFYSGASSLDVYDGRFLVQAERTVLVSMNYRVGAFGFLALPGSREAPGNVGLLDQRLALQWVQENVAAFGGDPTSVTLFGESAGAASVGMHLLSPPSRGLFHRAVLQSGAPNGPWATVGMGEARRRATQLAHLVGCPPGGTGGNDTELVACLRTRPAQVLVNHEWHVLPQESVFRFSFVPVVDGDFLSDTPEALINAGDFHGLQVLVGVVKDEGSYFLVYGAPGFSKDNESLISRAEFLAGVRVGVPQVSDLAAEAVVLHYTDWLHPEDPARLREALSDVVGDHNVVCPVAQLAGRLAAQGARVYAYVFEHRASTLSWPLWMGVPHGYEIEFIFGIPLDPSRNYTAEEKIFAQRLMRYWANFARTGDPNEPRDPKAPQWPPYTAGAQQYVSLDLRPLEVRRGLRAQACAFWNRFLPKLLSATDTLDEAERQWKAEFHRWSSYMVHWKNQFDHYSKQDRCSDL

[3] = target: T2, Tyrosine-protein phosphatase non-receptor type 11 (Homo sapiens); assay: Inhibition of SHP2 (unknown origin) at 25 uM
[4] = target: T2, Tyrosine-protein phosphatase non-receptor type 11 (Homo sapiens); assay: Inhibition of SHP2 (unknown origin) at 50 uM
[5] = target: T2, Tyrosine-protein phosphatase non-receptor type 11 (Homo sapiens); assay: Inhibition of SHP2 (unknown origin) at 100 uM
HeLa = assay: Antitumor activity against human HeLa cells; type: functional, cell-based
[6] = target: T2, Tyrosine-protein phosphatase non-receptor type 11 (Homo sapiens); assay: Inhibition of SHP2 (unknown origin) at 10 uM
[7] = target: T2, Tyrosine-protein phosphatase non-receptor type 11 (Homo sapiens); assay: Inhibition of SHP2 (unknown origin) at 20 uM
Cathepsin B = Cathepsin B (Homo sapiens, UniProt P07858); assay: Inhibition of cathepsin B (unknown origin)
[8] = target: T3, Tyrosine-protein phosphatase non-receptor type 11 (Homo sapiens, UniProt Q06124); assay: Inhibition of SHP2 (unknown origin)
T3 sequence (Q06124 whole entry): T2 sequence (whole entry)

SMILES | IC50 (Monoglyceride lipase) [µM] | IC50 (MDA-MB-231) [mg/L] | IC50 [1] [mg/L] | IC50 (Proteasome) [mg/L] | inhibition [2] [%] | IC50 (Acetylcholinesterase) [µM] | inhibition [3] [%] | inhibition [4] [%] | inhibition [5] [%] | IC50 (HeLa) [mg/L] | inhibition [6] [%] | inhibition [7] [%] | IC50 (Cathepsin B) [µM] | IC50 [8] [µM]
CCN(CC)C(=O)[C@H](Cc1ccccc1)NC(=O)[C@H](CC(C)C)NC(=O)[C@@H](NC(=O)[C@@H](N)COC(=O)[C@H](CC(C)C)NC(C)=O)C(C)C (H-S([Leu-Ac])VLF-NEt2) | > 148 | > 50 | > 100 | > 100 | 12 | > 148 | 46 | 83 | 94 | > 50 | 31 | 40 | > 148 | 36.8
CCN(CC)C(=O)[C@H](Cc1ccc(OC)cc1)NC(=O)[C@H](CC(C)C)NC(=O)[C@@H](NC(=O)[C@@H](N)COC(=O)[C@H](CC(C)C)NC(C)=O)C(C)C (H-S([Leu-Ac])VLY(Me)-NEt2) | > 142 | > 50 | > 100 | > 100 |  | > 142 |  | 52 | 92 | > 50 |  | 34 | > 142 | 
CCN(CC)C(=O)[C@H](Cc1ccc2ccccc2c1)NC(=O)[C@H](CC(C)C)NC(=O)[C@@H](NC(=O)[C@@H](N)COC(=O)[C@H](CC(C)C)NC(C)=O)C(C)C (H-S([Leu-Ac])VL[2Nal]-NEt2) | > 138 | > 50 | > 100 | > 100 |  | > 138 |  | 46 | 93 | > 50 |  | 27 | > 138 | 
CCN(CC)C(=O)[C@H](Cc1ccc(Br)cc1)NC(=O)[C@H](CC(C)C)NC(=O)[C@@H](NC(=O)[C@@H](N)COC(=O)[C@H](CC(C)C)NC(C)=O)C(C)C (H-S([Leu-Ac])VL[Phe(4-Br)]-NEt2) | > 133 | > 50 | > 100 | > 100 | 21 | > 133 | 49 | 78 | 96 | > 50 | 26 | 46 | > 133 | 33.2
CCN(CC)C(=O)[C@H](Cc1ccc(Cl)cc1)NC(=O)[C@H](CC(C)C)NC(=O)[C@@H](NC(=O)[C@@H](N)COC(=O)[C@H](CC(C)C)NC(C)=O)C(C)C (H-S([Leu-Ac])VL[Phe(4-Cl)]-NEt2) | > 141 | > 50 | > 100 | > 100 |  | > 141 |  | 49 | 89 | > 50 |  | 21 | > 141 | 
CCN(CC)C(=O)[C@H](Cc1ccc(F)cc1)NC(=O)[C@H](CC(C)C)NC(=O)[C@@H](NC(=O)[C@@H](N)COC(=O)[C@H](CC(C)C)NC(C)=O)C(C)C (H-S([Leu-Ac])VL[Phe(4-F)]-NEt2) | > 144 | > 50 | > 100 | > 100 |  | > 144 |  | 55 | 97 | > 50 |  | 32 | > 144 | 
CCN(CC)C(=O)[C@H](Cc1ccccc1)NC(=O)[C@H](CC(C)C)NC(=O)[C@@H](NC(=O)[C@@H](N)COC(=O)[C@@H]1CCCN1C(C)=O)C(C)C (H-S([Pro-Ac])VLF-NEt2) | > 152 | > 50 | > 100 | > 100 |  | > 152 |  | 54 | 95 | > 50 |  | 29 | > 152 | 
CCN(CC)C(=O)[C@H](Cc1ccc(OC)cc1)NC(=O)[C@H](CC(C)C)NC(=O)[C@@H](NC(=O)[C@@H](N)COC(=O)[C@@H]1CCCN1C(C)=O)C(C)C (H-S([Pro-Ac])VLY(Me)-NEt2) | > 145 | > 50 | > 100 | > 100 |  | > 145 |  | 53 | 87 | > 50 |  | 35 | > 145 | 
CCN(CC)C(=O)[C@H](Cc1ccc2ccccc2c1)NC(=O)[C@H](CC(C)C)NC(=O)[C@@H](NC(=O)[C@@H](N)COC(=O)[C@@H]1CCCN1C(C)=O)C(C)C (H-S([Pro-Ac])VL[2Nal]-NEt2) | > 141 | > 50 | > 100 | > 100 | 33 | > 141 | 61 | 76 | 94 | > 50 | 47 | 58 | > 141 | 12.5
CCN(CC)C(=O)[C@H](Cc1ccc(Br)cc1)NC(=O)[C@H](CC(C)C)NC(=O)[C@@H](NC(=O)[C@@H](N)COC(=O)[C@@H]1CCCN1C(C)=O)C(C)C (H-S([Pro-Ac])VL[Phe(4-Br)]-NEt2) | > 136 | > 50 | > 100 | > 100 |  | > 136 |  | 51 | 86 | > 50 |  | 20 | > 136 | 
CCN(CC)C(=O)[C@H](Cc1ccc(Cl)cc1)NC(=O)[C@H](CC(C)C)NC(=O)[C@@H](NC(=O)[C@@H](N)COC(=O)[C@@H]1CCCN1C(C)=O)C(C)C (H-S([Pro-Ac])VL[Phe(4-Cl)]-NEt2) | > 144 | > 50 | > 100 | > 100 |  | > 144 |  | 46 | 88 | > 50 |  | 37 | > 144 | 
CCN(CC)C(=O)[C@H](Cc1ccc(F)cc1)NC(=O)[C@H](CC(C)C)NC(=O)[C@@H](NC(=O)[C@@H](N)COC(=O)[C@@H]1CCCN1C(C)=O)C(C)C (H-S([Pro-Ac])VL[Phe(4-F)]-NEt2) | > 148 | > 50 | > 100 | > 100 | 18 | > 148 | 47 | 81 | 95 | > 50 | 23 | 44 | > 148 | 31.9
